Source: ChEMBL document CHEMBL1240403, “Penicillin-binding protein gene alterations in Streptococcus uberis isolates presenting decreased susceptibility to penicillin” (2010)
In brackets after ≈: the same amount, converted by molar mass.

Legend:
Streptococcus uberis [1] = test: Antimicrobial activity against Streptococcus uberis ATCC 19436 assessed as inhibition of visible growth after 24 hrs by broth macrodilution method; format: functional; details: ATCC 19436, 24 h
Streptococcus uberis [2] = test: Antimicrobial activity against Streptococcus uberis ATCC 8749 harboring PAP1A A227T/G386R, PBP2B N366I/T402I and PBP2X E381K/D524A/Q554E mutation after 37 passages assessed as inhibition of visible growth broth macrodilution method; format: functional
Streptococcus uberis [3] = test: Antimicrobial activity against Streptococcus uberis ATCC 8749 harboring PBP2B N366I/T402I/V570A/P575S and PBP2X A492E mutation assessed as inhibition of visible growth by broth macrodilution method; format: functional
Streptococcus uberis [4] = test: Antimicrobial activity against Streptococcus uberis isolate ALP 8144 harboring PBP2X E381K/Q554E mutation assessed as inhibition of visible growth after 24 hrs by broth macrodilution method; format: functional; details: isolate ALP 8144, 24 h
Streptococcus uberis [5] = test: Antimicrobial activity against Streptococcus uberis isolate 1.11 harboring PAP1A G386R, PBP2B T593A and PBP2X E381K/Q554E mutation assessed as inhibition of visible growth after 24 hrs by broth macrodilution method; details: isolate 1.11, 24 h
Streptococcus uberis [6] = test: Antimicrobial activity against Streptococcus uberis ATCC 9529 harboring PBP2B N366I/T402I and PBP2X E381K/Q554E mutation assessed as inhibition of visible growth by broth macrodilution method; format: functional
Streptococcus uberis [7] = test: Antimicrobial activity against Streptococcus uberis ATCC 19436 harboring PAP1A A227T, PBP2B N366I/T402I and PBP2X E381K/Q554E mutation after 15 passages assessed as inhibition of visible growth by broth macrodilution method; format: functional
Streptococcus uberis [8] = test: Antimicrobial activity against Streptococcus uberis isolate 20618 harboring PAP1A G386R and PBP2X E381K/Q554E mutation assessed as inhibition of visible growth after 24 hrs by broth macrodilution method; format: functional; details: isolate 20618, 24 h
Streptococcus uberis [9] = test: Antimicrobial activity against Streptococcus uberis isolate ALP8092 harboring PAP1A G386R and PBP2X E381K/Q554E mutation assessed as inhibition of visible growth after 24 hrs by broth macrodilution method; format: functional; details: isolate ALP8092, 24 h
Streptococcus uberis [10] = test: Antimicrobial activity against Streptococcus uberis ATCC 8749 harboring PAP1A A227T/G386R, PBP2B N366I/T402I and PBP2X E381K/D524A/Q554E mutation after 28 passages assessed as inhibition of visible growth broth macrodilution method; format: functional
Streptococcus uberis [11] = test: Antimicrobial activity against Streptococcus uberis ATCC 8749 harboring PAP1A R273H, PBP2B N366I/T402I and PBP2X E381K/Q554E mutation after 16 passages assessed as inhibition of visible growth by broth macrodilution method; format: functional
Streptococcus uberis [12] = test: Antimicrobial activity against Streptococcus uberis isolate BL246 harboring PBP2B N366I/T402I and PBP2X E381K/Q554E mutation assessed as inhibition of visible growth after 24 hrs by broth macrodilution method; format: functional; details: isolate BL246, 24 h
Streptococcus uberis [13] = test: Antimicrobial activity against Streptococcus uberis ATCC 19436 harboring PAP1A A227T, PBP2B N366I/T402I and PBP2X E381K/D524A/Q554E mutation after 18 passages assessed as inhibition of visible growth by broth macrodilution method; format: functional
Streptococcus uberis [14] = test: Antimicrobial activity against Streptococcus uberis isolate 20568 harboring PAP1A G386R, PBP2B N366I/T402I/V570A/P575S and PBP2X E381K/Q554E mutation assessed as inhibition of visible growth after 24 hrs by broth macrodilution method; format: functional; details: isolate 20568, 24 h
Streptococcus uberis [15] = test: Antimicrobial activity against Streptococcus uberis ATCC 9529 harboring PAP1A A227T/G386R, PBP2B N366I/T402I and PBP2X E381K/D524A/Q554E mutation after 39 passages assessed as inhibition of visible growth by broth macrodilution method; format: functional
Streptococcus uberis [16] = test: Antimicrobial activity against Streptococcus uberis ATCC 9529 harboring PAP1A R273P, PBP2B N366I/T402I and PBP2X E381K/Q554E mutation after 28 passages assessed as inhibition of visible growth by broth macrodilution method; format: functional
Streptococcus uberis [17] = test: Antimicrobial activity against Streptococcus uberis ATCC 19436 harboring PAP1A A227T/G386R, PBP2B N366I/T402I and PBP2X E381K/D524A/Q554E mutation after 30 passages assessed as inhibition of visible growth by broth macrodilution method; format: functional
Streptococcus uberis [18] = test: Antimicrobial activity against Streptococcus uberis isolate 20592 harboring and PBP2X E381K/Q554E mutation assessed as inhibition of visible growth after 24 hrs by broth macrodilution method; format: functional; details: isolate 20592, 24 h
Streptococcus uberis [19] = test: Antimicrobial activity against Streptococcus uberis ATCC 9529 harboring PAP1A R273P, PBP2B N366I/T402I and PBP2X E381K/Q554E mutation after 11 passages assessed as inhibition of visible growth by broth macrodilution method; format: functional

Question: With `CC1(C)S[C@@H]2[C@H](NC(=O)Cc3ccccc3)C(=O)N2[C@H]1C(=O)O` [PENICILLIN G] as the compound, how does the MIC (Streptococcus uberis [1]) read?
Answer: 0.032 µg/mL (≈ 0.0957 µM)

Question: And the MIC (Streptococcus uberis [2])?
Answer: 2 µg/mL (≈ 5.98 µM)

Question: What about the MIC (Streptococcus uberis [3]) of the same compound?
Answer: 0.016 µg/mL (≈ 0.0478 µM)

Question: And the MIC (Streptococcus uberis [4])?
Answer: 0.25 µg/mL (≈ 0.748 µM)

Question: What about the MIC (Streptococcus uberis [5]) of the same compound?
Answer: 0.25 µg/mL (≈ 0.748 µM)

Question: And the MIC (Streptococcus uberis [6])?
Answer: 0.128 µg/mL (≈ 0.383 µM)

Question: And the MIC (Streptococcus uberis [7])?
Answer: 0.5 µg/mL (≈ 1.5 µM)

Question: And the MIC (Streptococcus uberis [8])?
Answer: 0.25 µg/mL (≈ 0.748 µM)

Question: What about the MIC (Streptococcus uberis [9]) of the same compound?
Answer: 0.25 µg/mL (≈ 0.748 µM)

Question: What about the MIC (Streptococcus uberis [10]) of the same compound?
Answer: 1 µg/mL (≈ 2.99 µM)

Question: What about the MIC (Streptococcus uberis [11]) of the same compound?
Answer: 0.5 µg/mL (≈ 1.5 µM)

Question: And the MIC (Streptococcus uberis [12])?
Answer: 0.25 µg/mL (≈ 0.748 µM)

Question: And the MIC (Streptococcus uberis [13])?
Answer: 1 µg/mL (≈ 2.99 µM)

Question: What about the MIC (Streptococcus uberis [14]) of the same compound?
Answer: 0.5 µg/mL (≈ 1.5 µM)

Question: And the MIC (Streptococcus uberis [15])?
Answer: 2 µg/mL (≈ 5.98 µM)

Question: What about the MIC (Streptococcus uberis [16]) of the same compound?
Answer: 1 µg/mL (≈ 2.99 µM)

Question: What about the MIC (Streptococcus uberis [17]) of the same compound?
Answer: 2 µg/mL (≈ 5.98 µM)

Question: What about the MIC (Streptococcus uberis [18]) of the same compound?
Answer: 0.5 µg/mL (≈ 1.5 µM)

Question: And the MIC (Streptococcus uberis [19])?
Answer: 0.5 µg/mL (≈ 1.5 µM)
